Data from article PMC3561163 (PLoS Neglected Tropical Diseases, 2013).
Marks after values point to notes of the source that are not given here.

Columns and labels:
[1] = test system: PBMCs from YF-17DD vaccinees; assay type: cell-based, human
[2] = test system: 14 different HLA class II molecules; assay type: binding, human
[3] = test system: CD4^+ depleted PBMCs from YF-17DD vaccinees; assay type: cell-based, human
[4] = test system: CD8^+ T-cells isolated from HLA-A*0201 positive individuals; assay type: cell-based, human

## CC[C@H](C)[C@H](NC(=O)CNC(=O)[C@H](CCCCN)NC(=O)[C@H](CC(N)=O)NC(=O)[C@@H](NC(=O)[C@H](C)NC(=O)[C@H](C)NC(=O)[C@@H](NC(=O)[C@H](CC(C)C)NC(=O)[C@H](CC(=O)O)NC(=O)[C@H](CC(=O)O)NC(=O)[C@H](C)N)[C@@H](C)O)[C@@H](C)CC)C(=O)N[C@@H](CC(C)C)C(=O)N[C@H](C(=O)N[C@H](C(=O)O)[C@@H](C)O)C(C)C [Env337–351]
[1]
  ELISPOT Max: 30 SFC/10^6 PBMC
  ELISPOT Min: 12 SFC/10^6 PBMC
  No. of responders: 3
  Recognition frequency (%) (Table S1): 17%
[2]
  Level of peptide promiscuity: intermediate (key: low (affinity to 2 to 5 HLA class II molecules bound); intermediate (affinity to 6 to 9 HLA class II molecules bound); highly promiscuous (binding to ≥10 HLA molecules))
  Total DR bound: 9

## CC[C@H](C)[C@H](NC(=O)CNC(=O)[C@H](CCCCN)NC(=O)[C@@H](N)CC(N)=O)C(=O)N[C@@H](CC(C)C)C(=O)N[C@H](C(=O)N[C@H](C(=O)N[C@H](C(=O)N[C@@H](CC(N)=O)C(=O)N1CCC[C@H]1C(=O)N[C@H](C(=O)N[C@@H](C)C(=O)N[C@@H](CO)C(=O)N[C@H](C(=O)N[C@@H](CC(N)=O)C(=O)O)[C@@H](C)O)[C@@H](C)CC)C(C)C)[C@@H](C)O)C(C)C [Env345–359]
[1]
  ELISPOT Max: 271 SFC/10^6 PBMC
  ELISPOT Min: 10 SFC/10^6 PBMC
  No. of responders: 9
  Recognition frequency (%) (Table S1): 33%
[3]
  IFN-γ SFC Average ± STDEV: 315±160 SFC (CD4-depleted PBMCs/10^6)
  IFN-γ SFC Median: 287 SFC (CD4-depleted PBMCs/10^6)
  No. of responders (CD4-depleted PBMCs): 3
[2]
  Level of peptide promiscuity: highly promiscuous (key: low (affinity to 2 to 5 HLA class II molecules bound); intermediate (affinity to 6 to 9 HLA class II molecules bound); highly promiscuous (binding to ≥10 HLA molecules))
  Total DR bound: 13

## CC[C@H](C)[C@H](NC(=O)[C@H](CC(C)C)NC(=O)[C@@H](NC(=O)[C@H](CCC(=O)O)NC(=O)[C@@H](N)CC(=O)O)C(C)C)C(=O)N[C@@H](CCC(=O)O)C(=O)N[C@H](C(=O)N[C@@H](CC(N)=O)C(=O)N1CCC[C@H]1C(=O)N1CCC[C@H]1C(=O)N[C@@H](Cc1ccccc1)C(=O)NCC(=O)N[C@@H](CC(=O)O)C(=O)N[C@@H](CO)C(=O)N[C@@H](Cc1ccc(O)cc1)C(=O)O)C(C)C [Env361–375]
[1]
  ELISPOT Max: 203 SFC/10^6 PBMC
  ELISPOT Min: 14 SFC/10^6 PBMC
  No. of responders: 4
  Recognition frequency (%) (Table S1): 15%
[3]
  IFN-γ SFC Average ± STDEV: 16±0 SFC (CD4-depleted PBMCs/10^6)
  IFN-γ SFC Median: 16 SFC (CD4-depleted PBMCs/10^6)
  No. of responders (CD4-depleted PBMCs): 2
[2]
  Total DR bound: 10

## CSCC[C@H](NC(=O)[C@@H](NC(=O)[C@@H](N)C(C)C)C(C)C)C(=O)N[C@H](C(=O)N[C@@H](CO)C(=O)N[C@@H](CC(C)C)C(=O)N[C@@H](C)C(=O)N[C@@H](CC(C)C)C(=O)N[C@H](C(=O)NCC(=O)N[C@@H](C)C(=O)N[C@@H](C)C(=O)N[C@@H](CC(C)C)C(=O)N[C@@H](Cc1c[nH]cn1)C(=O)N1CCC[C@H]1C(=O)O)C(C)C)[C@@H](C)O [NS2b97–111]
[1]
  ELISPOT Max: 26 SFC/10^6 PBMC
  ELISPOT Min: 10 SFC/10^6 PBMC
  No. of responders: 6
  Recognition frequency (%) (Table S1): 10%
[2]
  Level of peptide promiscuity: intermediate (key: low (affinity to 2 to 5 HLA class II molecules bound); intermediate (affinity to 6 to 9 HLA class II molecules bound); highly promiscuous (binding to ≥10 HLA molecules))
  Total DR bound: 7

## CC[C@H](C)[C@H](NC(=O)[C@@H](NC(=O)[C@H](CCC(=O)O)NC(=O)CNC(=O)[C@H](CC(N)=O)NC(=O)[C@H](CCCNC(=N)N)NC(=O)[C@H](CC(N)=O)NC(=O)[C@@H](NC(=O)[C@@H](NC(=O)[C@@H]1CCCN1C(=O)[C@H](CO)NC(=O)CNC(=O)[C@H](CO)NC(=O)[C@@H](NC(=O)CN)[C@@H](C)O)[C@@H](C)CC)C(C)C)C(C)C)C(=O)O [NS3_137–151]
[1]
  ELISPOT Max: 137 SFC/10^6 PBMC
  ELISPOT Min: 18 SFC/10^6 PBMC
  No. of responders: 5
  Recognition frequency (%) (Table S1): 11%
[3]
  No. of responders (CD4-depleted PBMCs): 0
[2]
  Total DR bound: 1

## CSCC[C@H](NC(=O)[C@H](C)NC(=O)[C@H](CCSC)NC(=O)[C@@H](N)CCCNC(=N)N)C(=O)N[C@H](C(=O)N[C@@H](CC(=O)O)C(=O)N[C@H](C(=O)N[C@H](C(=O)N1CCC[C@H]1C(=O)N[C@@H](Cc1ccccc1)C(=O)NCC(=O)N[C@@H](CCC(N)=O)C(=O)N[C@@H](CCC(N)=O)C(=O)N[C@@H](CCCNC(=N)N)C(=O)N[C@H](C(=O)O)C(C)C)[C@@H](C)O)[C@@H](C)O)[C@@H](C)O [NS5_341–355]
[1]
  ELISPOT Max: 267 SFC/10^6 PBMC
  ELISPOT Min: 27 SFC/10^6 PBMC
  No. of responders: 6
  Recognition frequency (%) (Table S1): 12%
[3]
  No. of responders (CD4-depleted PBMCs): 0
[2]
  Level of peptide promiscuity: low (key: low (affinity to 2 to 5 HLA class II molecules bound); intermediate (affinity to 6 to 9 HLA class II molecules bound); highly promiscuous (binding to ≥10 HLA molecules))
  Total DR bound: 4

## CC(C)[C@H](NC(=O)[C@H](CCCNC(=N)N)NC(=O)[C@H](CCC(N)=O)NC(=O)[C@H](CCC(N)=O)NC(=O)CNC(=O)[C@H](Cc1ccccc1)NC(=O)[C@@H]1CCCN1C(=O)[C@@H](NC(=O)[C@@H](NC(=O)[C@H](CC(=O)O)NC(=O)[C@@H](N)[C@@H](C)O)[C@@H](C)O)[C@@H](C)O)C(=O)N[C@@H](Cc1ccccc1)C(=O)N[C@@H](CCCCN)C(=O)N[C@@H](CCC(=O)O)C(=O)N[C@@H](CCCCN)C(=O)O [NS5_345–359]
[1]
  ELISPOT Max: 914 SFC/10^6 PBMC
  ELISPOT Min: 55 SFC/10^6 PBMC
  No. of responders: 8
  Recognition frequency (%) (Table S1): 17%
[3]
  IFN-γ SFC Average ± STDEV: 66±71 SFC (CD4-depleted PBMCs/10^6)
  IFN-γ SFC Median: 32 SFC (CD4-depleted PBMCs/10^6)
  No. of responders (CD4-depleted PBMCs): 3
[2]
  Level of peptide promiscuity: low (key: low (affinity to 2 to 5 HLA class II molecules bound); intermediate (affinity to 6 to 9 HLA class II molecules bound); highly promiscuous (binding to ≥10 HLA molecules))
  Total DR bound: 2

## CC[C@H](C)[C@H](NC(=O)[C@H](C)NC(=O)[C@H](CCCNC(=N)N)NC(=O)[C@H](CO)NC(=O)CNC(=O)[C@H](CCCCN)NC(=O)[C@H](C)NC(=O)[C@H](CCCCN)NC(=O)CNC(=O)[C@H](Cc1ccccc1)NC(=O)[C@@H](N)CCC(=O)O)C(=O)N[C@@H](Cc1c[nH]c2ccccc12)C(=O)N[C@@H](Cc1ccc(O)cc1)C(=O)N[C@@H](CCSC)C(=O)N[C@@H](Cc1c[nH]c2ccccc12)C(=O)O [NS5_465–479]
[1]
  ELISPOT Max: 1593 SFC/10^6 PBMC
  ELISPOT Min: 10 SFC/10^6 PBMC
  No. of responders: 6
  Recognition frequency (%) (Table S1): 12%
[3]
  IFN-γ SFC Average ± STDEV: 168±0 SFC (CD4-depleted PBMCs/10^6)
  IFN-γ SFC Median: 168 SFC (CD4-depleted PBMCs/10^6)
  No. of responders (CD4-depleted PBMCs): 2
[2]
  Level of peptide promiscuity: intermediate (key: low (affinity to 2 to 5 HLA class II molecules bound); intermediate (affinity to 6 to 9 HLA class II molecules bound); highly promiscuous (binding to ≥10 HLA molecules))
  Total DR bound: 7

## CC[C@H](C)[C@H](NC(=O)[C@H](C)NC(=O)[C@H](CCCNC(=N)N)NC(=O)[C@H](CO)NC(=O)CNC(=O)[C@H](CCCCN)NC(=O)[C@H](C)N)C(=O)N[C@@H](Cc1c[nH]c2ccccc12)C(=O)N[C@@H](Cc1ccc(O)cc1)C(=O)N[C@@H](CCSC)C(=O)N[C@@H](Cc1c[nH]c2ccccc12)C(=O)N[C@@H](CC(C)C)C(=O)NCC(=O)N[C@@H](C)C(=O)N[C@@H](CCCNC(=N)N)C(=O)O [NS5_469–483]
[1]
  ELISPOT Max: 1828 SFC/10^6 PBMC
  ELISPOT Min: 13 SFC/10^6 PBMC
  No. of responders: 8
  Recognition frequency (%) (Table S1): 17%
[2]
  Level of peptide promiscuity: highly promiscuous (key: low (affinity to 2 to 5 HLA class II molecules bound); intermediate (affinity to 6 to 9 HLA class II molecules bound); highly promiscuous (binding to ≥10 HLA molecules))
  Total DR bound: 10

## CC(C)C[C@H](NC(=O)[C@H](C)NC(=O)[C@H](CCC(=O)O)NC(=O)[C@H](Cc1ccccc1)NC(=O)[C@H](CCC(=O)O)NC(=O)[C@H](CC(C)C)NC(=O)[C@H](Cc1ccc(O)cc1)NC(=O)[C@H](CCCNC(=N)N)NC(=O)[C@H](C)NC(=O)CN)C(=O)NCC(=O)N[C@@H](Cc1ccccc1)C(=O)N[C@@H](CC(C)C)C(=O)N[C@@H](CC(N)=O)C(=O)N[C@@H](CCC(=O)O)C(=O)O [NS5_481–495]
[1]
  ELISPOT Max: 1022 SFC/10^6 PBMC
  ELISPOT Min: 13 SFC/10^6 PBMC
  No. of responders: 11
  Recognition frequency (%) (Table S1): 23%
[3]
  IFN-γ SFC Average ± STDEV: 95±0 SFC (CD4-depleted PBMCs/10^6)
  IFN-γ SFC Median: 95 SFC (CD4-depleted PBMCs/10^6)
  No. of responders (CD4-depleted PBMCs): 2
[2]
  Level of peptide promiscuity: highly promiscuous (key: low (affinity to 2 to 5 HLA class II molecules bound); intermediate (affinity to 6 to 9 HLA class II molecules bound); highly promiscuous (binding to ≥10 HLA molecules))
  Total DR bound: 10

## LWNGPMAVS [NS4b77–85]
[1]
  T-cell activation by 9-mers covering NS4b77–91: induced the most T-cell activation
[4]
  yield of cellular proliferation of the CD8^+ T-cell population expanded by aAPCs: 2×10^6
